Reference: ChEMBL document CHEMBL5729255, “Compounds and uses thereof” (2022)

The compounds below were run against T1, Bromodomain-containing protein 9 (Homo sapiens, UniProt Q9H8M2) (assay: Bromodomain TR-FRET Competition Binding Assay: A mixture of biotinylated-ligand and SureLight Allophycocyanin-Streptavidin (APC-SA, PerkinElmer AD0201) in 50 mM HEPES (pH 7.4), 50 mM NaCl, 1 mM TCEP (pH 7), 0.01% (v/v) Tween-20, 0.01% (w/v) bovine serum albumin was added to a white 384-well PerkinElmer Proxiplate Plus plate. DMSO or 3-fold serially diluted compounds were then added to the Proxiplate followed by addition of Flag-BRD9. After a 10-minute incubation at room temperature, Eu-W1024 anti-FLAG (PerkinElmer, AD0273) was added. The final reaction miture that contained 3.75 nM biotinylated ligand, 3 nM Flag-BRD9, 7.5 nM SureLight Allophycocyanin-Streptavidin, and 0.2 nM Eu-W1024 anti-FLAG was incubated at room temperature for 90 minutes.).
T1 sequence (Q9H8M2 whole entry): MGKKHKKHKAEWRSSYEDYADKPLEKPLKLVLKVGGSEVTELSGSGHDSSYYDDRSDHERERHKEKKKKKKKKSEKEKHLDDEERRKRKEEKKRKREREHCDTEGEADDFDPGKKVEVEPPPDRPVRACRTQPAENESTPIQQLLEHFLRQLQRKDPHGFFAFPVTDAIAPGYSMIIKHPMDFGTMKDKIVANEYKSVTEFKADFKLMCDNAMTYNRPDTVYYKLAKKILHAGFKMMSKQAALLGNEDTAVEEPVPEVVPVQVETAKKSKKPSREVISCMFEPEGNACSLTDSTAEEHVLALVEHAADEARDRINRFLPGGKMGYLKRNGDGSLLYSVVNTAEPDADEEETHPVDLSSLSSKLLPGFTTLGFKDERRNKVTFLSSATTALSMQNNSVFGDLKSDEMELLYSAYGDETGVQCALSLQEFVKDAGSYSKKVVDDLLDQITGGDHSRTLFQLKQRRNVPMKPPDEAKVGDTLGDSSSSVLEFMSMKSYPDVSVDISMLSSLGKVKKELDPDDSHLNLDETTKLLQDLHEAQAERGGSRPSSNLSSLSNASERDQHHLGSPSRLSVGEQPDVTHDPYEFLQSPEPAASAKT

Going from `COc1cc(-c2cn(C)c(=O)c3cnccc23)cc(OC)c1CN1CCN(C(=O)CCCCOc2cccc3c2C(=O)N(C2CCC(=O)NC2=O)C3=O)CC1` (stereo not given) to `COc1cc(-c2cn(C)c(=O)c3cnccc23)cc(OC)c1CN1CCCC(OCc2cn(CCCCOc3ccc4c(c3)C(=O)N(C3CCC(=O)NC3=O)C4=O)nn2)C1` (stereo not given), the IC50 rises from less than 10 nM to greater than 10 nM. The first is the more potent here.

Compared with `COc1cc(-c2cn(C)c(=O)c3cnccc23)cc(OC)c1CN(C)Cc1cn(-c2ccc3c(c2)C(=O)N(C2CCC(=O)NC2=O)C3=O)nn1` (stereo not given), `COc1cc(-c2cn(C)c(=O)c3cnccc23)cc(OC)c1CN1CC(OCc2cn(CCOc3ccc4c(c3)C(=O)N(C3CCC(=O)NC3=O)C4=O)nn2)C1` (stereo not given) is lower in IC50: greater than 10 nM for the first, less than 10 nM for the second. The second is the more potent here.

`COc1cc(-c2cn(C)c(=O)c3cnccc23)cc(OC)c1CN1CC(S(=O)(=O)NCCCCNc2ccc3c(c2)C(=O)N(C2CCC(=O)NC2=O)C3=O)C1` (stereo not given) showed an IC50 of less than 10 nM.
